The test system of series [1] is BV-2 cells. Kind of series: MTT cell viability assay. Type of series: cell-based, murine. The following applies: 5 μM compound, % of LPS, mean ± SD. The protocol:
(§1) 3-(4,5-dimethylthiazol-2-yl)-2,5-diphenyl-tetrazolium bromide (MTT) assay was performed to evaluate the cytotoxicity of the samples to the microglia. BV2 cells at the density of 4 × 10^4 cells /well were seeded in the 96 well plate and incubated for 24 h. Seeded cells were pre-treated with different concentration of the samples, and LPS (100 ng/ml) activation was performed after 30 min of compound treatment. Treated plate were incubated for 24 h in the incubator and nitric oxide assay and cell viability assay was performed. Treated cell’s conditioned medium was used to evaluate the NO assay, and the attached cells were used to evaluate the cell viability assay. 50 µL of conditioned medium (CM) from treated cells were transferred to a new 96 well plate for NO assay. This CM was mixed with the equal volume of the mixture of Gries reagent ((1% sulfanilamide and 0.1% N-1-napthylethylenediamine dihydrochloride). NaNO2 was used as standard and the colorimetric change were evidenced by measuring its OD at 540 nm in a microplate reader. The cells in the plate were incubated for 1 h with MTT solution making it the final concentration of […]. Blue stained cells were incubated with 200 ul of DMSO and the solution get changed to purple/formazan color and it was observed by measuring the absorbance at 570 nm in a microplate reader.NG-mono-methyl-L-arginine (L-NMMA), a well-known nitric oxide synthase (NOS) inhibitor, was used as a positive control.

In series [2] the test system is NO production in LPS-activated BV-2 cells. Kind of series: NO production assay (Griess) in LPS-activated BV-2 cells. The series is classed as cell-based, murine. Particulars: read-out: NO Inhibition IC50. The protocol: as §1
Series [3] concerns the target GSK3β (Homo sapiens, UniProt P49841). In words: GSK3β radiolabelled kinase assay (% residual activity, IC50, ATP competition). Type of series: biochemical. Particulars: at 10 μM compound.
The test system of series [4] is COX-2. In words: Western blot of COX-2 in LPS-induced BV-2 cells. The series is classed as cell-based, murine. Particulars: 0.01 to 1 uM. The procedure: (§2) Western blot analysis was performed to see the protein expression of the iNOS and COX-2 in the BV2 cells. BV2 cells were seeded in a 6 well plate at the density of 6 × 10^5 cells/well overnight and cells were treated as mentioned earlier in the cell treatment section and this time treatment was performed for 6 h only. After 6 h, cells were harvested and lysed with lysis buffer containing (RIPA, protease inhibitor & phosphatase inhibitor), protein estimation was performed using biorad assay and the 30 µg of total protein was separated by 8% SDS-PAGE gel electrophoresis, transferred to nitrocellulose membranes, and incubated with primary antibodies against tubulin, iNOS, COX-2, and α-tubulin. […] membranes were incubated with horseradish peroxidase-conjugated secondary antibodies, and protein bands were visualized using ECL Western Blotting Detection Reagents (Amersham Pharmacia Biotech). Quantitative analysis of the protein bands was quantified using Image Master 2D Elite software (version 3.1, Amersham Pharmacia Biotech).

Series [5] has as its system iNOS. Kind of series: Western blot of iNOS in LPS-induced BV-2 cells. Type of series: cell-based, murine. The following applies: 0.01 to 1 uM, LPS-induced BV-2 cells. The protocol: as §2
The nature of series [6]: MTT cell viability assay. Type of series: cell-based, murine. The following applies: mouse, BV-2 microglia cells (LPS-activated), mean ± SD. The procedure: as §1
In series [7] the target is T1, PDK1/PDHK1 (Homo sapiens, UniProt Q15118).
T1 construct: purchased Reaction Biology Corp
T1 sequence (Q15118 29-436): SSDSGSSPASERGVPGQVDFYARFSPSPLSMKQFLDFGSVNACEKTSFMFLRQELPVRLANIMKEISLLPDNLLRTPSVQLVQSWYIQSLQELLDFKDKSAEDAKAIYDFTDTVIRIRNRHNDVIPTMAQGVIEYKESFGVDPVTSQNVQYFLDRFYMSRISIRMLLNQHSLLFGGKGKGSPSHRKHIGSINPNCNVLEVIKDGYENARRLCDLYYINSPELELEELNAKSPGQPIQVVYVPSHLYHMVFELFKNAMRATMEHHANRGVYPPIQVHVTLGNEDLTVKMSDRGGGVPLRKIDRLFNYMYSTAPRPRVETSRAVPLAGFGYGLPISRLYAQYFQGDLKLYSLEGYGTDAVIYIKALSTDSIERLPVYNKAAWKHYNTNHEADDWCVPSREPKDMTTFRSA
Kind of series: Kinase panel assay (radiolabelled). Particulars: control GW5074. Type of series: biochemical. The protocol:
(§3) Every inhibitory activity of tested compounds was measured by radiolabelled method of Reaction Biology Corp). The radiolabelled ATP ([γ-^33P] ATP) replaced a substrate with ^33P-phosphorylated substrate so that the activity of a kinase was measured from the radiolabelled phosphorylated substrate. Kinase panel assay was tested at 30 μM testing compounds with an ATP concentration of 10 μM and a substrate concentration of 10 μM. % Residual activity against GSK3β was measured at 10 uM compounds 1 and 2. […] Curve fits of control compounds were performed where the enzyme activities at the highest concentration of compounds were less than 65%. The concentration of DMSO was controlled and raw data, % kinase activity was calculated relative to DMSO controls.

The target of series [8] is T2, PDK2/PDHK2 (Homo sapiens, UniProt Q15119).
T2 construct: purchased Reaction Biology Corp
Kind of series: Kinase panel assay (radiolabelled). The following applies: control GW5074. Type of series: biochemical. The procedure:
as §3

For series [9], the target named is T3, PDK4/PDHK4 (Homo sapiens, UniProt Q16654).
T3 construct: purchased Reaction Biology Corp
T3 sequence (Q16654 whole entry): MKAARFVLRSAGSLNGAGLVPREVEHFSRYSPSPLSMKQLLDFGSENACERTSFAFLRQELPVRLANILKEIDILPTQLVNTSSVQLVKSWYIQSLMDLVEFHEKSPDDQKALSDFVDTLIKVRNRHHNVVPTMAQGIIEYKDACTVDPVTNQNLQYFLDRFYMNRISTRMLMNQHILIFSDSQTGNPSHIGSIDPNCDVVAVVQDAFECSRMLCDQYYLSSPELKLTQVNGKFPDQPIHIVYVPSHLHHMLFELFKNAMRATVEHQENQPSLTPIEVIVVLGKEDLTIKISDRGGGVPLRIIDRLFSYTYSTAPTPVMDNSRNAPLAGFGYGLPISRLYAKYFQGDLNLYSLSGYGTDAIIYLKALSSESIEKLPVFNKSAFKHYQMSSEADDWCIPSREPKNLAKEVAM
In words: Kinase panel assay (radiolabelled). The following applies: control GW5074. Type of series: biochemical. The procedure: as §3

In series [10] the target is T4, PDK3/PDHK3 (Homo sapiens, UniProt Q15120).
T4 construct: purchased Reaction Biology Corp
In words: Kinase panel assay (radiolabelled). The following applies: control GW5074. Type of series: biochemical. The protocol:
as §3

Series [11] concerns the target T5, TRPM7/CHAK1 (Homo sapiens, UniProt Q96QT4).
T5 construct: purchased Reaction Biology Corp
In words: Kinase panel assay (radiolabelled). Type of series: biochemical. Particulars: control NH125. The procedure: as §3

The target in series [12] is T6, PI3KC2A (Homo sapiens, UniProt O00443).
T6 construct: purchased Reaction Biology Corp
T6 sequence (O00443 whole entry): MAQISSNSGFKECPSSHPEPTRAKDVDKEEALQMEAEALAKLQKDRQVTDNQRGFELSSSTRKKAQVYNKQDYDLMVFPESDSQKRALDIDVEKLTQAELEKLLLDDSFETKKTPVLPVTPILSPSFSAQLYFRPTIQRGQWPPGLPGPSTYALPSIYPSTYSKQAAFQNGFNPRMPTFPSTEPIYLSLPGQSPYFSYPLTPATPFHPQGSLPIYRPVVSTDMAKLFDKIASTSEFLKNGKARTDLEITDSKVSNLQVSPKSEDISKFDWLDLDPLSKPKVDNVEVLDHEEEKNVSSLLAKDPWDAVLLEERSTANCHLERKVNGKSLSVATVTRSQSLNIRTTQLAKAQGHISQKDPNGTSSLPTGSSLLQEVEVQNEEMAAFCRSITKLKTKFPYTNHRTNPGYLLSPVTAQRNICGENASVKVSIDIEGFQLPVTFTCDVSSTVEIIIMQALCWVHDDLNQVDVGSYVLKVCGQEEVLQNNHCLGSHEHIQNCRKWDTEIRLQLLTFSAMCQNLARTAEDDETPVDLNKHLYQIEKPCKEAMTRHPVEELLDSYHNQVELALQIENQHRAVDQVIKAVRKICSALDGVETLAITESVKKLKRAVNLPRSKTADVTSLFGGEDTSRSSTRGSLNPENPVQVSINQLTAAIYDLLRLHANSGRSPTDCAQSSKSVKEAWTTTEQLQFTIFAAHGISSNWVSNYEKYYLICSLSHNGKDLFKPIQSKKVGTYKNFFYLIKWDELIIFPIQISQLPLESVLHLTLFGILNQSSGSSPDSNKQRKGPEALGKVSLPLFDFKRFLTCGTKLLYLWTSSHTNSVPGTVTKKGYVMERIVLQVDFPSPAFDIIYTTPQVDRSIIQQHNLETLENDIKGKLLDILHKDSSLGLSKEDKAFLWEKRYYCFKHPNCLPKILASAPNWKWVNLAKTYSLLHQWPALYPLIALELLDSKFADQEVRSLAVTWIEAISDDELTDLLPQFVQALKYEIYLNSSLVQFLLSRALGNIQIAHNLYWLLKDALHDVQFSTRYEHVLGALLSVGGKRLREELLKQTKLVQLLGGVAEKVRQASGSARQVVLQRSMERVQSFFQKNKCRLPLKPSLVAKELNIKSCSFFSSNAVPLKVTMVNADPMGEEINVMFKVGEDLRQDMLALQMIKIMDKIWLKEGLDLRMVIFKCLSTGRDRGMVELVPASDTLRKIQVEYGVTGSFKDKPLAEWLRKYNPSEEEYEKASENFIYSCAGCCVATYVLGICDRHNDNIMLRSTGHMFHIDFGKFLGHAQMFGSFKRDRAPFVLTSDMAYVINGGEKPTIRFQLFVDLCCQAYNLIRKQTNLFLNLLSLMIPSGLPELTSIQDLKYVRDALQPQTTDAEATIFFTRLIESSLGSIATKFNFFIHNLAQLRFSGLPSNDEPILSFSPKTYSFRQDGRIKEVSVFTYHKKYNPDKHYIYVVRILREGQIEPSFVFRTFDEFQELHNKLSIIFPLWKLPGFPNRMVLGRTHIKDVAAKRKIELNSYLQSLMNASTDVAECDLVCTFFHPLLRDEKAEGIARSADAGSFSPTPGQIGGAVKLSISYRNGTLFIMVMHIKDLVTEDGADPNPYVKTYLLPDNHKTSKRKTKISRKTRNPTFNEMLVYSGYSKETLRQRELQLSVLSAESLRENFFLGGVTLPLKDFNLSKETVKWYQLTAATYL
Kind of series: Kinase panel assay (lipid kinase). The following applies: read-out: IC50 (M) of Control (+). The series is classed as biochemical. The procedure:
as §3

Series [13] addresses T7, PIP5K1C (Homo sapiens, UniProt O60331).
T7 construct: purchased Reaction Biology Corp
Kind of series: Kinase panel assay (lipid kinase). The series is classed as biochemical. The following applies: control PIK-93. The procedure: as §3

The target in series [14] is T8, PI3KC3 (Homo sapiens, UniProt Q8NEB9).
T8 construct: purchased Reaction Biology Corp
T8 sequence (Q8NEB9 whole entry): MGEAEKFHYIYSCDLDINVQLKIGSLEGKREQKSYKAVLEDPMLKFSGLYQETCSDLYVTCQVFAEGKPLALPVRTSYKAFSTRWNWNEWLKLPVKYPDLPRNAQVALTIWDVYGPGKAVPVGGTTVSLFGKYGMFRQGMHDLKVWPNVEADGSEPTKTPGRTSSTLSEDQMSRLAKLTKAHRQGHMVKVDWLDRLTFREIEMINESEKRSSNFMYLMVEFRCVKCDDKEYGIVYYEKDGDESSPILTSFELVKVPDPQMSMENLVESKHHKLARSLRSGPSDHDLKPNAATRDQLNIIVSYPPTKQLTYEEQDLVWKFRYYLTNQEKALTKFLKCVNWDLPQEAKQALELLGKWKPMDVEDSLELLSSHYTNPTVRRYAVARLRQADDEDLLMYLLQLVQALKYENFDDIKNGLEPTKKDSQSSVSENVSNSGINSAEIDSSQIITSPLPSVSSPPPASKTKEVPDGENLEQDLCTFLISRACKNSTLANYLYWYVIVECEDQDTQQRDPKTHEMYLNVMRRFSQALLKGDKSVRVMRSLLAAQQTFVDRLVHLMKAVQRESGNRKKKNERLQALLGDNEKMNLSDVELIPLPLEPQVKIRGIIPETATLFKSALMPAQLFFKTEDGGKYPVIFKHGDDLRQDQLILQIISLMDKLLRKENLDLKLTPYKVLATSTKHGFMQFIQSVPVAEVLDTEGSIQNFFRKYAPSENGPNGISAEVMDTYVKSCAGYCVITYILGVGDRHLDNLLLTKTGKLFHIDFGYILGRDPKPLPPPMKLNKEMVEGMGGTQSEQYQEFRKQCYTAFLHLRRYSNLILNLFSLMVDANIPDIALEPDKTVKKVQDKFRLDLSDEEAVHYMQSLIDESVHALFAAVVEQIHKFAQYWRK
In words: Kinase panel assay (lipid kinase). Type of series: biochemical. The following applies: control PIK-93. The protocol:
as §3

For series [15], the target named is T9, PIP5K1A (Homo sapiens, UniProt Q99755).
T9 construct: purchased Reaction Biology Corp
T9 sequence (Q99755 whole entry): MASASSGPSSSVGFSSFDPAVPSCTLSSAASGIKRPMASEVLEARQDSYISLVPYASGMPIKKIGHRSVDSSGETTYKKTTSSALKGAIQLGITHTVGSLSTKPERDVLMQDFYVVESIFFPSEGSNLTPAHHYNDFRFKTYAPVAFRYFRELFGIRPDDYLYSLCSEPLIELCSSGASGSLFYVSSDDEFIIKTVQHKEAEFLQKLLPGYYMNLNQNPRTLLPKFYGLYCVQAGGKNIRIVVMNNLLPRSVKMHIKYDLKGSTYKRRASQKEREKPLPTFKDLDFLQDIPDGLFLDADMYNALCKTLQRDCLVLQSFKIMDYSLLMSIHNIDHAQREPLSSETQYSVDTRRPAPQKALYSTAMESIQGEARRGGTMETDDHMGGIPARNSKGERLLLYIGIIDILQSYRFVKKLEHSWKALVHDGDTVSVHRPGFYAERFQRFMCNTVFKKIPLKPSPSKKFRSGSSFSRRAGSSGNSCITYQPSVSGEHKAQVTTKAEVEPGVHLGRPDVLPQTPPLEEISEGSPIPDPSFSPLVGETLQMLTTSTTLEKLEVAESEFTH
Kind of series: Kinase panel assay (lipid kinase). Type of series: biochemical. The following applies: control PIK-93. The protocol: as §3

Series [16] concerns the target T10, PI4K2A (Homo sapiens, UniProt Q9BTU6).
T10 construct: purchased Reaction Biology Corp
In words: Kinase panel assay (lipid kinase). Type of series: biochemical. The following applies: control PIK-93. The procedure: as §3

Like-named read-outs stand apart in the source and are kept apart here.

GSK3β, sequence (P49841 whole entry): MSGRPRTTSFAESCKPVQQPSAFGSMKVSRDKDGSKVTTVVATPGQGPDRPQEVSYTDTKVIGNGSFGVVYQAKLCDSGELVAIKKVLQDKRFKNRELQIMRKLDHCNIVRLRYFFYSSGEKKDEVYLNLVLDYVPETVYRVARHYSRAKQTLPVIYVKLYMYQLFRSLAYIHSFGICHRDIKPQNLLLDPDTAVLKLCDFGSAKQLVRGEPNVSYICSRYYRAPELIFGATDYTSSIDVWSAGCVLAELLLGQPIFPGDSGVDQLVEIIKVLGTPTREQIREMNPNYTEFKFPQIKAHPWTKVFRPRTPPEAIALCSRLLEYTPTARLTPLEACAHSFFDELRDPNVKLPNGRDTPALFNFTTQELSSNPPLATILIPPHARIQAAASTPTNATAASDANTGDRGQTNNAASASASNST
T7 sequence (O60331 whole entry): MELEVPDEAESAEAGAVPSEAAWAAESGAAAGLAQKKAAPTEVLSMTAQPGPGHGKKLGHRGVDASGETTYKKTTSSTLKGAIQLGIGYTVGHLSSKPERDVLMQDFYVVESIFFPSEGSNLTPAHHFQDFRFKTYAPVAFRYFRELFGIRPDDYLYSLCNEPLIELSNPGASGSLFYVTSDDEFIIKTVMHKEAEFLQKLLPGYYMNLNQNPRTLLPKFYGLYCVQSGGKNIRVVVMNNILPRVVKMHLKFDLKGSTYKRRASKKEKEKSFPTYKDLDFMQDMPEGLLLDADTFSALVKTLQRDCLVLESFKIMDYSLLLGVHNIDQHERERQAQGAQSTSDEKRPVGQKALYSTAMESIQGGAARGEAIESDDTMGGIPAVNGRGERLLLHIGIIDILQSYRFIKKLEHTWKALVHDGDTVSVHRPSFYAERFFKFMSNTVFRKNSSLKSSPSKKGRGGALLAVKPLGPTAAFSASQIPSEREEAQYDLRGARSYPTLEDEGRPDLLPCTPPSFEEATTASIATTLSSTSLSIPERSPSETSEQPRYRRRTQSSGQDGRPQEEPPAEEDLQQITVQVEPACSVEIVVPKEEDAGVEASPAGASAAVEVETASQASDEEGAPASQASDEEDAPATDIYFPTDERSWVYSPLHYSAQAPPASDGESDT

On to `O=C1C=CC2(C=C1)OCC(Cc1ccccc1CS(=O)(=O)c1ccccc1)C(=O)N2c1ccccc1` (stereo not shown) [1b], for which the “Cell Viability (%)” value in series [1] turned out to be 84 ± 3%. Also, the IC50 in [2] amounted to 980 ± 30 nM. In addition, the “% GSK3β Residual Activity” value in series [3] is given as 91.0 ± 12.6%.
In the case of `O=C1C=CC2(C=C1)OCC(Cc1cn(-c3ccccc3)nn1)C(=O)N2c1ccccc1` (stereo not shown) [2a, 5-Phenyl-3-((1-phenyl-1H-1,2,3-triazol-4-yl)methyl)-1-oxa-5-azaspiro[5.5]undeca-7,10-diene-4,9-dione], the “COX-2 expression level” value in [4] was “limited potency and efficacy”. Moreover, in series [5], the “iNOS expression level” value is “limited potency and efficacy”. In series [6] (1 μM compound), this compound displayed a viability at 24 h, 1 µM of 92.9 ± 0.24%. In series [6] (5 μM compound, % of LPS), this compound displayed a viability at 24 h, 5 µM of 81 ± 3%. Also, the IC50 in [2] (Mus musculus) is 670 ± 50 nM. In addition, the remaining activity at 10 µM in [3] amounted to 62.3 ± 2.3%.
Consider `O=C1Nc2ccc(I)cc2/C1=C/c1cc(Br)c(O)c(Br)c1` [GW5074, reference compound], for which the IC50 was 12100 nM in series [7], 3280 nM in series [8], 2120 nM in series [9] and 1820 nM in series [10].
The compound `CCCCCCCCCCCCCCCCn1cc[n+](Cc2ccccc2)c1C` [NH125, reference compound] yielded an IC50 in series [11] of 5860 nM.
Regarding `Oc1cccc(-c2nc(N3CCOCC3)c3oc4ncccc4c3n2)c1` [PI-103, reference compound], the IC50 in series [12] was found to be 4.8e-07 M.
Consider `CC(=O)Nc1nc(C)c(-c2ccc(Cl)c(S(=O)(=O)NCCO)c2)s1` [PIK-93, reference compound], for which the IC50 in series [13] was found to be 17500 nM; in series [14] it was 75.7 nM; in series [15], 61800 nM; in series [16], 18500 nM.

Values taken from publication PMC7719162, “Positioning of an unprecedented spiro[5.5]undeca ring system into kinase inhibitor space” (Scientific Reports, 2020).
